The text below walks through data of patent US20220041606A1, “POSITIVE ALLOSTERIC MODULATORS OF THE MUSCARINIC ACETYLCHOLINE RECEPTOR M1” (Vanderbilt University, priority 2020, published 2022).

For assay [1], the target named is T1, human mAChR M1 (Homo sapiens, UniProt P11229).
T1 construct: host or cells: CHO-K1 cells (ATCC), stably transfected using Lipofectamine2000
T1 sequence (P11229 1-460): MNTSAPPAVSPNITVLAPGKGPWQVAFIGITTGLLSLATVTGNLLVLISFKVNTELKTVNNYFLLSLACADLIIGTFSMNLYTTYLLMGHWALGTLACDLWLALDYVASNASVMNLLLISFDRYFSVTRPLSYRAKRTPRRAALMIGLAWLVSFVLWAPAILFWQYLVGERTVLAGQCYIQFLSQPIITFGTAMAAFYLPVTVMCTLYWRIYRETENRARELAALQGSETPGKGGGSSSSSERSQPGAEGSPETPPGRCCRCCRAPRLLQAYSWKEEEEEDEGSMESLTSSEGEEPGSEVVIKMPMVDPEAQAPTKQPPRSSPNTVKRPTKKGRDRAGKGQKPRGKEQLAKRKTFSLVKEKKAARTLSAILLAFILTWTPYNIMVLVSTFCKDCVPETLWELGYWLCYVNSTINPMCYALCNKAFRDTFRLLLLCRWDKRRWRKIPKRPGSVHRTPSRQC
The assay can be described thus: mAChR M1 cell-based functional assay (calcium mobilization), agonist activity upon compound addition. The conditions noted are these: CHO-K1 cells expressing hM1; for EC50: compound alone, before acetylcholine addition; for Emax: relative to the maximum for acetylcholine. The essentials:
(§1)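 CHO-K1 cells stably expressing hM1, loaded with Fluo-4 AM; calcium flux read on FDSS 6000. Compound (11-point, 1:3 CRC) added at 4 s, EC20 acetylcholine at 144 s, EC80 at 230 s; agonism from response to compound alone, PAM from increase in EC20 response; Emax relative to acetylcholine maximum, four-parameter fit.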
Background: Calcium assays in cells follow changes in intracellular calcium, usually with a dye or a luminescent sensor.

Assay [2] has as its target T1, human mAChR M1. Briefly: mAChR M1 cell-based functional assay (calcium mobilization), PAM activity: increase in the EC20 acetylcholine response. The conditions noted are these: CHO-K1 cells expressing hM1; potentiation of EC20 acetylcholine response. The method in brief: as §1

In the case of `CC(C)[C@@H](CO)NC(=O)c1cn(Cc2c(F)cc(-c3cccc4nn(C)cc34)cc2F)c(=O)c2nccnc12` [Compound A75, (S)-6-(2,6-difluoro-4-(2-methyl-2H-indazol-4-yl)benzyl)-N-(1-hydroxy-3-methylbutan-2-yl)-5-oxo-5,6-dihydropyrido[3,4-b]pyrazine-8-carboxamide], at human mAChR M1 [1], the EC50 (usually the concentration at which the effect is half-maximal) is more than 10 µM and the Emax (as a rule, the greatest response seen or fitted, relative to the assay's reference) was less than 5%. Besides, on human mAChR M1 [2], the EC50 was 3.54 µM and the maximal response (Emax) was 56%.

As to `Cn1ccc(-c2ccc(Cn3cc(C(=O)N[C@H]4CCC[C@@H]4O)c4nccnc4c3=O)c(F)c2)n1` [Compound A64, 6-(2-fluoro-4-(1-methyl-1H-pyrazol-3-yl)benzyl)-N-((1S,2S)-2-hydroxycyclopentyl)-5-oxo-5,6-dihydropyrido[3,4-b]pyrazine-8-carboxamide], at human mAChR M1 [1], the EC50 was more than 10 µM and the maximum response (Emax) came out at 41%. For the same molecule, on human mAChR M1 [2], the EC50 is not below 10 µM and the Emax stood at 41%.

As for `Cn1cc2c(-c3cc(F)c(Cn4cc(C(=O)N[C@H]5CCCCC[C@@H]5O)c5ncncc5c4=O)c(F)c3)cccc2n1` [Compound A85, 6-(2,6-difluoro-4-(2-methyl-2H-indazol-4-yl)benzyl)-N-((1S,2S)-2-hydroxycycloheptyl)-5-oxo-5,6-dihydropyrido[4,3-d]pyrimidine-8-carboxamide], on human mAChR M1 [1], the EC50 is more than 10 µM and the Emax was less than 5%. Further, at human mAChR M1 [2], the EC50 was not below 10 µM and the maximal response (Emax) turned out to be 41%.

Consider `CC[C@H](C)[C@@H](CO)NC(=O)c1cn(Cc2c(F)cc(-c3cccc4nn(C)cc34)cc2F)c(=O)c2nccnc12` [Compound A76, 6-(2,6-difluoro-4-(2-methyl-2H-indazol-4-yl)benzyl)-N-((2S,3S)-1-hydroxy-3-methylpentan-2-yl)-5-oxo-5,6-dihydropyrido[3,4-b]pyrazine-8-carboxamide], for which the EC50 is more than 10 µM on human mAChR M1 [1] and 4.33 µM on human mAChR M1 [2]. Also, the Emax at human mAChR M1 [1] is less than 5%; at human mAChR M1 [2], 53%.

Consider `O=C(N[C@H]1CCC[C@@H]1O)c1cn(Cc2ccc(-n3cccn3)cc2)c(=O)c2ccoc12` [Compound D4, 5-(4-(1H-pyrazol-1-yl)benzyl)-N-((1S,2S)-2-hydroxycyclopentyl)-4-oxo-4,5-dihydrofuro[3,2-c]pyridine-7-carboxamide], for which the EC50 on human mAChR M1 [1] and at human mAChR M1 [2] was more than 10 µM in each case. In addition, the maximal effect (Emax) is less than 5% on human mAChR M1 [1] and 34% on human mAChR M1 [2].

Regarding `Cc1cncc(-c2cc(F)c(Cn3cc(C(=O)N[C@H]4CCOC[C@@H]4O)c4ncccc4c3=O)c(F)c2)c1` [Compound A33, 6-(2,6-difluoro-4-(5-methylpyridin-3-yl)benzyl)-N-((3R,4S)-3-hydroxytetrahydro-2H-pyran-4-yl)-5-oxo-5,6-dihydro-1,6-naphthyridine-8-carboxamide], at human mAChR M1 [1], the EC50 is 3.22 µM and the Emax was determined as 13%. At human mAChR M1 [2], the EC50 was 0.86 µM and the Emax is 64%.

Take `O=C(N[C@H]1CCCC[C@@H]1O)c1cn(Cc2ccc(-n3cccn3)cc2)c(=O)c2cccnc12` [Compound A13, 6-(4-(1H-pyrazol-1-yl)benzyl)-N-((1S,2S)-2-hydroxycyclohexyl)-5-oxo-5,6-dihydro-1,6-naphthyridine-8-carboxamide]: on human mAChR M1 [1], the 50% effective concentration (EC50) was 8.95 µM and the Emax was found to be 21%. On human mAChR M1 [2], the 50% effective concentration (EC50) is 1.13 µM and the Emax was found to be 71%.

As to `Cn1nccc1-c1cc(F)c(Cn2cc(C(=O)N[C@H]3CCOC[C@@H]3O)c3nccn3c2=O)c(F)c1` [Compound B36, 6-(2,6-difluoro-4-(1-methyl-1H-pyrazol-5-yl)benzyl)-N-((3R,4S)-3-hydroxytetrahydro-2H-pyran-4-yl)-5-oxo-5,6-dihydroimidazo[1,2-c]pyrimidine-8-carboxamide], on human mAChR M1 [1], the EC50 is more than 10 µM and the Emax was less than 5%. For the same molecule, on human mAChR M1 [2], the concentration for a half-maximal effect (EC50) was 1.25 µM and the maximum response (Emax) worked out at 78%.

As for `Cn1cc(-c2ccc(Cn3cc(C(=O)NC4CC5(COC5)C4)c4ncccc4c3=O)c(F)c2)cn1` [Compound A11, 6-(2-fluoro-4-(1-methyl-1H-pyrazol-4-yl)benzyl)-5-oxo-N-(2-oxaspiro[3.3]heptan-6-yl)-5,6-dihydro-1,6-naphthyridine-8-carboxamide], at human mAChR M1 [1], the 50% effective concentration (EC50) is more than 10 µM and the maximum response (Emax) was less than 5%. Further, at human mAChR M1 [2], the concentration giving a half-maximal response (EC50) turned out to be 6.75 µM and the Emax is 58%.

As to `Cn1cc2c(-c3cc(F)c(Cn4cc(C(=O)N[C@H]5CCCCC[C@@H]5O)c5nccnc5c4=O)c(F)c3)cccc2n1` [Compound A67, 6-(2,6-difluoro-4-(2-methyl-2H-indazol-4-yl)benzyl)-N-((1S,2S)-2-hydroxycycloheptyl)-5-oxo-5,6-dihydropyrido[3,4-b]pyrazine-8-carboxamide], at human mAChR M1 [1], the EC50 worked out at 5 µM and the Emax was 46%. Also, on human mAChR M1 [2], the EC50 amounted to 0.62 µM and the maximum response (Emax) amounted to 77%.

As to `O=C(N[C@H]1CCOC[C@@H]1O)c1cn(Cc2ccc(-n3cccn3)cc2)c(=O)c2cccnc12` [Compound A12, 6-(4-(1H-pyrazol-1-yl)benzyl)-N-((3R,4S)-3-hydroxytetrahydro-2H-pyran-4-yl)-5-oxo-5,6-dihydro-1,6-naphthyridine-8-carboxamide], the maximum response (Emax) amounted to 28% at human mAChR M1 [1] and 70% on human mAChR M1 [2]. Moreover, the EC50 on human mAChR M1 [2] amounted to 1.39 µM.

Consider `Cn1ccc(-c2ccc(Cn3cc(C(=O)N[C@H]4CCCCC[C@@H]4O)c4ncn(C)c4c3=O)c(F)c2)n1` [Compound C3, 5-(2-fluoro-4-(1-methyl-1H-pyrazol-3-yl)benzyl)-N-((1S,2S)-2-hydroxycycloheptyl)-3-methyl-4-oxo-4,5-dihydro-3H-imidazo[4,5-c]pyridine-7-carboxamide], for which, on human mAChR M1 [1], the EC50 was more than 10 µM and the maximal response (Emax) was less than 5%. On human mAChR M1 [2], the EC50 amounted to 0.31 µM and the maximum response (Emax) is 60%.

On to `Cn1cc(-c2ccc(Cn3cc(C(=O)N[C@H]4CCCCC[C@@H]4O)c4occc4c3=O)c(F)c2)cn1` [Compound D16, 5-(2-fluoro-4-(1-methyl-1H-pyrazol-4-yl)benzyl)-N-((1S,2S)-2-hydroxycycloheptyl)-4-oxo-4,5-dihydrofuro[3,2-c]pyridine-7-carboxamide], for which, on human mAChR M1 [1], the EC50 is more than 10 µM and the maximal effect (Emax) came out at 8%. Moreover, on human mAChR M1 [2], the concentration giving a half-maximal response (EC50) stood at 2.02 µM and the Emax amounted to 75%.

Consider `Cn1cc2c(-c3cc(F)c(Cn4cc(C(=O)N[C@H]5CCCC[C@@H]5O)c5nccnc5c4=O)c(F)c3)cccc2n1` [Compound A52, 6-(2,6-Difluoro-4-(2-methyl-2H-indazol-4-yl)benzyl)-N-((1S,2S)-2-hydroxycyclohexyl)-5-oxo-5,6-dihydropyrido[3,4-b]pyrazine-8-carboxamide], for which, on human mAChR M1 [1], the half-maximal effective concentration (EC50) came to 4.36 µM and the Emax stood at 50%. For the same molecule, at human mAChR M1 [2], the EC50 was 0.4 µM and the Emax stood at 64%.

Regarding `Cn1cc2c(-c3cc(F)c(Cn4cc(C(=O)N[C@H]5CCC[C@@H]5O)c5nccn5c4=O)c(F)c3)cccc2n1` [Compound B21, 6-(2,6-difluoro-4-(2-methyl-2H-indazol-4-yl)benzyl)-N-((1S,2S)-2-hydroxycyclopentyl)-5-oxo-5,6-dihydroimidazo[1,2-c]pyrimidine-8-carboxamide], on human mAChR M1 [1], the concentration giving a half-maximal response (EC50) is more than 10 µM and the maximum response (Emax) is less than 5%. Moreover, at human mAChR M1 [2], the EC50 turned out to be 0.9 µM and the Emax was 59%.
